From ChEMBL document CHEMBL3045594, “Synthesis and evaluation of substituted 5-(3-chloro-2-oxo-4-phenylazetidin-1-ylamino)pyrimidine-2,4,6(1H,3H,5H)-triones against pentylenetetrazole-induced convulsant in mice” (Med Chem Res, 2012)

Legend:
Mus musculus [1] = assay: Anticonvulsant activity in Mus musculus (mouse) subcutaneous PTZ-induced seizure assessed as malondialdehyde level at 20 mg/kg, ip administered 30 min before PTZ challenge by TBARS assay; type: functional
Mus musculus [2] = assay: Anticonvulsant activity in Mus musculus (mouse) subcutaneous PTZ-induced seizure assessed as carbonyl protein level at 40 mg/kg, ip administered 30 min before PTZ challenge; type: functional
Mus musculus [3] = assay: Anticonvulsant activity in Mus musculus (mouse) subcutaneous PTZ-induced seizure assessed as reduced nitrite level per mg of protein at 40 mg/kg, ip administered 30 min before PTZ challenge by Griess reaction; type: functional
Mus musculus [4] = assay: Anticonvulsant activity in Mus musculus (mouse) subcutaneous PTZ-induced seizure assessed as reduced glutathione level per mg of protein at 40 mg/kg, ip administered 30 min before PTZ challenge by Ellman method; type: functional
Mus musculus [5] = assay: Anticonvulsant activity in Mus musculus (mouse) subcutaneous PTZ-induced seizure assessed as malondialdehyde level at 40 mg/kg, ip administered 30 min before PTZ challenge by TBARS assay; type: functional
Mus musculus [6] = assay: Anticonvulsant activity in Mus musculus (mouse) assessed as protection against subcutaneous PTZ-induced seizure at 40 mg/kg, ip administered 30 min before PTZ challenge; type: functional
Mus musculus [7] = assay: Anticonvulsant activity in Mus musculus (mouse) assessed as protection against subcutaneous PTZ-induced seizure at 20 mg/kg, ip administered 30 min before PTZ challenge; type: functional
[8] = Acute toxicity in Mus musculus (mouse) assessed as mortality at 1000 mg/kg, ip; type: organism-based; parameters: dose 1000 mg/kg, route intraperitoneal; settings: in vivo, read-out: Activity
Mus musculus [9] = assay: Acute toxicity in Mus musculus (mouse) assessed as behavioral changes at 1000 mg/kg, ip; type: organism-based; parameters: dose 1000 mg/kg, route intraperitoneal; settings: in vivo
Mus musculus [10] = assay: Acute toxicity in Mus musculus (mouse) at 100 to 200 mg/kg, ip; type: organism-based; parameters: dose 100-200 mg/kg, route intraperitoneal; settings: in vivo
Mus musculus [11] = assay: Anticonvulsant activity in Mus musculus (mouse) subcutaneous PTZ-induced seizure assessed as carbonyl protein level at 20 mg/kg, ip administered 30 min before PTZ challenge; type: functional
Mus musculus [12] = assay: Anticonvulsant activity in Mus musculus (mouse) subcutaneous PTZ-induced seizure assessed as reduced nitrite level per mg of protein at 20 mg/kg, ip administered 30 min before PTZ challenge by Griess reaction; type: functional
Mus musculus [13] = assay: Anticonvulsant activity in Mus musculus (mouse) subcutaneous PTZ-induced seizure assessed as reduced glutathione level per mg of protein at 20 mg/kg, ip administered 30 min before PTZ challenge by Ellman method; type: functional
Mus musculus [14] = assay: Anticonvulsant activity in Mus musculus (mouse) subcutaneous PTZ-induced seizure assessed as carbonyl protein level at 80 mg/kg, ip administered 30 min before PTZ challenge; type: functional
Mus musculus [15] = assay: Anticonvulsant activity in Mus musculus (mouse) subcutaneous PTZ-induced seizure assessed as reduced nitrite level per mg of protein at 80 mg/kg, ip administered 30 min before PTZ challenge by Griess reaction; type: functional
Mus musculus [16] = assay: Anticonvulsant activity in Mus musculus (mouse) subcutaneous PTZ-induced seizure assessed as reduced glutathione level per mg of protein at 80 mg/kg, ip administered 30 min before PTZ challenge by Ellman method; type: functional
Mus musculus [17] = assay: Anticonvulsant activity in Mus musculus (mouse) subcutaneous PTZ-induced seizure assessed as malondialdehyde level at 80 mg/kg, ip administered 30 min before PTZ challenge by TBARS assay; type: functional
Mus musculus [18] = assay: Anticonvulsant activity in Mus musculus (mouse) assessed as protection against subcutaneous PTZ-induced seizure at 80 mg/kg, ip administered 30 min before PTZ challenge; type: functional

Compound | Activity (Mus musculus [1]) [nmol/mg] | Activity (Mus musculus [2]) [nmol/mg] | Activity (Mus musculus [3]) [µmol] | Activity (Mus musculus [4]) [µmol] | Activity (Mus musculus [5]) [nmol/mg] | Activity (Mus musculus [6]) [%] | Activity (Mus musculus [7]) [%] | mortality [8] [%] | Activity (Mus musculus [9]) | Activity (Mus musculus [10]) | Activity (Mus musculus [11]) [nmol/mg] | Activity (Mus musculus [12]) [µmol] | Activity (Mus musculus [13]) [µmol] | Activity (Mus musculus [14]) [nmol/mg] | Activity (Mus musculus [15]) [µmol] | Activity (Mus musculus [16]) [µmol] | Activity (Mus musculus [17]) [nmol/mg] | Activity (Mus musculus [18]) [%]
O=C1NC(=O)C(NN2C(=O)C(Cl)C2c2ccccc2)C(=O)N1 (centres undefined) | 48.36 | 29.61 | 0.48 | 0.036 | 44.04 | 16 | 16 | 70 | Toxic | Non-toxic | 30.74 | 0.46 | 0.031 |  |  |  |  | 
COc1ccc(C2C(Cl)C(=O)N2NC2C(=O)NC(=O)NC2=O)cc1 (centres undefined) | 47.11 | 25.94 | 0.49 | 0.047 | 42.91 | 66 | 33 | 70 | Toxic | Non-toxic | 27.53 | 0.47 | 0.043 |  |  |  |  | 
COc1cc(C2C(Cl)C(=O)N2NC2C(=O)NC(=O)NC2=O)ccc1O (centres undefined) | 35.19 | 20.48 | 0.54 | 0.084 | 30.68 | 83 | 66 | 70 | Toxic | Non-toxic | 21.68 | 0.53 | 0.081 |  |  |  |  | 
CCCC(CCC)C(=O)[O-].[Na+] [VALPROATE SODIUM] |  |  |  |  |  |  |  |  |  |  |  |  |  | 19.06 | 0.54 | 0.089 | 28.13 | 100
